Experimental data taken from patent publication US20230381170A1, “METHOD FOR TREATING ALS/FTD THROUGH DEGRADATION OF RNA REPEAT EXPANSION” (University of Florida Research Foundation, Incorporated, priority 2020, published 2023).

Assays:
r(G2C2)10 = experiment: Biolayer interferometry (BLI) binding
Procedure: Biolayer Interferometry (BLI). BLI studies were performed similarly as previously described (12) using an Octet RED96. Briefly, 5′-biotinylated nucleic acids were folded by heating at 95° C. for 4 min in 10 mM sodium phosphate buffer, pH 7, followed by slowly cooling to room temperature. Then, to the folded RNA were added the following components: 1.386 mL 1×DPBS (21-031-CV, Corning), 180 μL freshly prepared 1% (w/v) BSA, 36 μL 1% (v/v) Tween-20, and 18 μL DMSO (1% final concentration) in a final volume of 1.8 mL. The final concentration of RNA was 0.5 μM. Separately, serial dilutions of the compound of interest were prepared in the same buffer.
Streptavidin sensors (SA, #18-5019, ForteBio) were equilibrated with buffer for 10 min at room temperature using 96-well black microplate (Greiner; Catalog #: 655209). The following time intervals were used during data acquisition (30° C. with shaking at 1000 rpm): baseline step, 180 s; loading of RNA, 900 s; washing, 180 s; association of compound, 1800 s; and dissociation of compound, 1800 s. The resulting curves were analyzed and processed using Octet Data Analysis software version 9.1 by subtracting the response of the sensors recorded upon incubation with solutions containing compound and no RNA (parallel reference). The data were then fitted assuming reversible binding using the entire time interval for association and dissociation using either 1:1 or the 2:1 heterogeneous binding curve fitting model. The reported Kd,n, kon,n and koff,n values represent the average of two independent experiments.

r(G4C2)exp = experiment: ASO-Bind-Map target profiling in patient-derived LCLs; type: cell-based, human; settings: ASO 100 nM
Procedure: Target profiling by ASO-Bind-Map. LCLs were first treated with compounds overnight at 37° C. and then transfected with G4C2-ASO (100 nM; Table 3). The cells were then incubated for another 24 h at 37° C. followed by extraction of total RNA as described above. The levels of various fragments were then measured by RT-qPCR as described above.

c9 patient-derived iPSCs = experiment: Cell viability; type: cell-based, human; settings: 1-1000 nM
Procedure: Cell Viability. Lymphoblastoid cells were seeded in 96-well plate (˜10^4 cells/well) overnight and then treated with compounds for 48 h. The cell viability was measured by CellTiter-Fluor™ Cell Viability Assay per the manufacturer's protocol. For iPSCs, cells (diluted 1:4 after harvesting from a 100 mm dish) were seeded in Matrigel-coated 24-well plate. After 24 h, the compounds were added for 48 h and cell viability was measured by AlamarBlue™ Cell Viability Reagent (DAL1025, Thermo Fisher Scientific) per the manufacturer's protocol.

[1] = target: T1, ternary complex r(G4C2)66, RNase L and 7 (Homo sapiens, UniProt Q05823); experiment: RNase L RNA immunoprecipitation in HEK293T cells; type: cell-based; settings: 500 nM, compared to vehicle
T1 construct: for degradation by recruiting the endogenous nuclease Rnase L; endogenous in cells; host or cells: HEK293T cells transfected with the (G4C2)66-No ATG-GFP plasmid (RNA only)
Procedure: RNA Immunoprecipitation. HEK293T cells were transfected with (G4C2)66-No ATG-GFP plasmid as described above, split into in 6-well plates, grown to ˜70% confluency, and treated with 500 nM 7 diluted in growth media for 24 h. The cell was washed with 1×PBS, removed from the plate with Accutase (Innovative Cell Technologies, Inc.), and then washed with 1×PBS. Cells were then lysed in 100 μL of M-PER buffer supplemented with 80 U RNaseOUT Recombinant Ribonuclease Inhibitor (Invitrogen) and 1× Protease Inhibitor Cocktail III for Mammalian Cells (Research Products International Corp.) per manufacturer's recommendations. The protein samples were tumbled overnight at 4° C. with Dynabeads Protein A (Life Technologies) that were bound to either β-actin mouse primary antibody (Cell Signaling Technologies; 3700S) or Rnase L mouse primary antibody (Santa Cruz Biotechnology; sc-74405). After antibody incubation, the beads were washed three times with 1×PBS supplemented with 0.02% Tween-20 and total RNA was extracted from beads using a miRNeasy Mini Kit (Qiagen) according to manufacturer's instructions.
Relative RNA expression levels before and after pull-down were determined by the ΔΔCt method and normalized to β-actin as a housekeeping gene.

T1 sequence (Q05823 whole entry, one chain of several): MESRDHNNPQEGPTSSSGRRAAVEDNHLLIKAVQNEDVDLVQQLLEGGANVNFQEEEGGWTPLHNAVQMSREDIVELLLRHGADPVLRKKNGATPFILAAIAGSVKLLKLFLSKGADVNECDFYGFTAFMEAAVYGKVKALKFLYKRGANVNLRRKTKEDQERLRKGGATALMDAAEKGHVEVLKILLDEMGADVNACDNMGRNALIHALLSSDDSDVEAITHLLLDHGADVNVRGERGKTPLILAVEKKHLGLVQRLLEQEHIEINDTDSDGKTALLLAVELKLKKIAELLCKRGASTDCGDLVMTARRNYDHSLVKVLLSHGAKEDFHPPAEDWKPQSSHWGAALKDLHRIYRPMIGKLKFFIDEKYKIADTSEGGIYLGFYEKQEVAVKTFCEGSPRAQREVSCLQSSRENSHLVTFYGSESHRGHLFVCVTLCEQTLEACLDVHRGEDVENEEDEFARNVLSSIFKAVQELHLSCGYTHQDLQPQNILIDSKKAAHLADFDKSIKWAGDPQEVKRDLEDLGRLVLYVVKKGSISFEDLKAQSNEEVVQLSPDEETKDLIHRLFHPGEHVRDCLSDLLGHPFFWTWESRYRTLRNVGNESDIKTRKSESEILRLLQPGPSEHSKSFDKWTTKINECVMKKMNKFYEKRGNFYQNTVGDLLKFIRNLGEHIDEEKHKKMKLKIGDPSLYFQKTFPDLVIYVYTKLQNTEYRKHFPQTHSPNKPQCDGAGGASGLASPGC

selective for r(G4C2)8 over r(G2C2)10 (r(G2C2)10)	Kd (r(G2C2)10; BLI, read-out: Kd, 1)	enrichment of r(G4C2)exp-containing mRNA in anti-Rnase L immunoprecipitated fractions [1]	Structure (SMILES)	intron 1 levels of C9orf72 mRNA in competition with G4C2-ASO (r(G4C2)exp)	toxicity (c9 patient-derived iPSCs)
~200 fold	0.8 µM	–	Cc1c2ccncc2c(C)c2c1[nH]c1ccc(OCCOCCOCCNCCOCCOCCOc3ccc4[nH]c5c(C)c6ccncc6c(C)c5c4c3)cc12 [Compound 3]	dose-dependent increase	no toxicity
–	–	~2 fold	CCOC(=O)C1=C(Nc2ccccc2)S/C(=C\c2ccc(OCCOCCOCCOCCNC(=O)CCC(=O)N(CCOCCOCCOc3ccc4[nH]c5c(C)c6ccncc6c(C)c5c4c3)CCOCCOCCOc3ccc4[nH]c5c(C)c6ccncc6c(C)c5c4c3)c(O)c2)C1=O [Compound 7]	–	–
